From patent US10561638B2, “Methods for treating dependence” (Biotie Therapies, Inc., priority 2007, dated 2020)
Entries after “also recorded” stand apart in the source; their conditions may differ.

Tests used:
[1] = system: normotensive Wistar-Kyoto rats; assay: Blood pressure in conscious, restrained Wistar-Kyoto rats; format: in vivo; conditions: 10 mg/kg
Source text: To summarize together, nepicastat causes a decrease in blood pressure in both SHRs and normotensive rats, though the antihypertensive effect is more pronounced in SHRs.

mice = assay: Clinical observations and behavioral tests in mice, single oral dose; format: in vivo
Protocol: A single oral dose of vehicle or nepicastat formulation was administered by gavage to each mouse using a rodent intubator. The oral route was selected because it is a proposed clinical route of administration. Dose volumes were calculated on the basis of individual body weights recorded before dosing (body weight data are not tabulated in this report). Food and water were withheld from the mice 2.5 to 3.5 hours before dosing, instead of 1.5 hours as specified in the protocol.
Clinical observations were recorded before dosing. Beginning 60 minutes after dosing, mice in each treatment group were evaluated in groups of up to 3 over an interval of approximately 10 minutes each for clinical observations and protocol-specified behavioral tests. One mouse in the 30-mg/kg group and 1 mouse in the 100-mg/kg group died after dosing and they were removed from the study. Surviving mice were euthanatized and removed from the study at the end of the observation/testing period.
[…] Clinical observations and behavioral tests were initiated 60 minutes after administration of the test formulation. At the end of the observation period, all surviving mice were euthanatized and removed from the study.

[2] = Pharmacokinetics and brain levels in rats; format: in vivo
Protocol: Male rats (Crl: CD BR Vaf+) weighing 180-220 g were fasted overnight before dosing and until 4 hr after dosing. Doses were formulated in water containing 2% 1-hydroxypropyl methylcellulose (50 centipoises viscosity), 1% benzyl alcohol, and 0.6% Tween 80 (all obtained from Sigma Chemical Company). Concentration of drug in the dose solutions was 5, 15, and 50 mg/ml for the 10, 30, and 100 mg/kg doses, respectively, and was verified by liquid chromatography (LC). The 5 mg/ml dose was a clear solution and the higher concentrations were a translucent suspension. Dose volumes were 2.0 ml/kg. At various times after dosing, samples of blood were obtained by cardiac puncture with heparinized syringes, and plasma was prepared by centrifugation. Brains of rats were surgically excised, and all samples were frozen at −20° C. until analysis.
Aliquots of plasma (0.05 or 0.5 ml) were mixed with internal standard (50 μl of methanol containing 5 μg/ml a monofluoro analog of nepicastat, and 5 mg/ml dithiothreitol). […] Concentrations of analytes were determined from a standard curve generated from the analysis of plasma from untreated rats fortified with known concentrations of analyte. Plasma concentration data are expressed as μg (free base) per ml. […]
Following addition of 100 μl of methanol to the aqueous phase (to disperse any emulsion), 100 μl aliquots were assayed by LC as described for plasma. Level in brain are expressed as μg (free base) per g of brain tissue.
Pharmacokinetic parameters were calculated from mean plasma concentrations. Plasma half-life (T1/2) was calculated as 0.693/β, where β is the elimination rate constant determined by linear regression of the log plasma concentration vs. time data within the terminal linear portion of the data. Areas under the plasma concentration vs. time curve (AUC) from zero to the time of the last quantifiable plasma concentrations were calculated by the trapezoidal rule. AUC from zero to infinity (AUCtotal 1 was calculated as: AUCtotal=AUC(0−Clast)+Clast/β where Clast is the last quantifiable plasma concentration.

[3] = system: plasma dopamine/norepinephrine; assay: Plasma dopamine/norepinephrine in congestive heart failure patients; format: in vivo, human
Protocol: In studies of congestive heart failure patients, changes in plasma dopamine levels, norepinephrine levels, and dopamine/norepinephrine ratios after treatment with nepicastat in a 10 day study were determined.
In studies of congestive heart failure patients, plasma dopamine levels, norepinephrine levels, and dopamine/norepinephrine ratios and changes of the levels and the ratios after treatment with nepicastat in a 30 day study were determined.

SHRs = conditions: rat, in vivo
[4] = Pilot observation studies in rats, acute and repeated oral administration
Protocol: Similarly, in a separate study, physostigmine (1, 3, 10 or 30 mg/kg p.o.) or vehicle were administered acutely to groups of 8 rats.
In pilot studies of repeated administration, nepicastat (100 mg/kg p.o.) or vehicle was administered twice daily (06:00 and 18:00 h) for 10 days (once on day 11) to groups of 8 rats. The weights of the animals were monitored throughout the study and, on day 5, the animals were observed ‘blind’ by an independent observer in order to assess any overt behavioural/physiological effects following repeated administration. In a separate study, groups of 8 rats received vehicle or physostigmine (0.3, 1, 3 or 10 mg/kg p.o.) using the same dosing schedule. The weights of the animals were monitored throughout the study.

[5] = 30, 100, 300 mg/kg single oral dose

## Cl.NCc1c[nH]c(=S)n1[C@H]1CCc2c(F)cc(F)cc2C1 [nepicastat, (S)-5-Aminomethyl-1-(5,7-difluoro-1,2,3,4-tetrahydronaphth-2-yl)-2,3-dihydro-2-thioxo-1H-imidazole hydrochloride]
[1]
  decrease in blood pressure 4 hours after dosing: −13 mmHg
mice; [5]
  clinical or gross behavior changes: No treatment-related clinical or gross behavior changes
  rectal body temperature vs vehicle-control: Lower body temperatures
mice; acute 1.0-30 mg/kg p.o.
  gross motor behavior: no significant effects on gross motor behavior
mice; one mouse each at 30 and 100 mg/kg
  deaths after dosing: the deaths were considered incidental
[2]; 30 mg/kg oral
  plasma AUCtotal, higher in female than in male rats: 77%
[2]; male rats, 10 mg/kg oral, from 2 hr onward, hydrochloride, 10 mg/kg
  brain vs plasma concentrations: concentrations of nepicastat in brain exceeded those in plasma; also recorded: levels of nepicastat in brain were greater than in plasma
[2]; male rats, 10-100 mg/kg
  relationship between AUCtotal and dose: linear
[3]; 10 day study
  dopamine/norepinephrine levels: increased dopamine/norepinephrine levels
[3]; 30 day study
  dopamine/norepinephrine levels: increased dopamine/norepinephrine levels
SHRs
  motor activity (MA): unaffected
[4]; nepicastat 100 mg/kg p.o. twice daily
  overt effects of repeated administration: no overt effects
[4]; nepicastat 100 mg/kg p.o. twice daily, 11 days
  irritability when handled: more irritable than controls
[4]; nepicastat 100 mg/kg p.o. twice daily, after 11 days
  mean loss in body weight: 28 g
[4]; nepicastat 30 or 100 mg/kg p.o. acutely
  overt behavioural/physiological changes: did not induce any overt behavioural/physiological changes
